In US12383626B2, “Polyoxazoline-drug conjugates with novel pharmacokinetic properties” (priority 2019, dated 2025):
Values joined by “and” are separate entries in the source; they are usually repeats but may differ in a detail not shown here. Equal entries are not always repeated.

Legend:
[1] = Log P (n-octanol/water partitioning)
[2] = male, Sprague Dawley, rat, in vivo, sc, 0.5 mg/kg
Description: The plasma levels of drugs released into the blood stream were measured in rodent (Sprague Dawley rats) and non-human primates (Macaca fascicularis, cynomolgus monkeys) following single subcutaneous injections of their respective POZ conjugates with different linkers and drug loading wt %.
Male Sprague Dawley naive rats (age 8-9 weeks, weight 200-250 g) were acquired and placed in rat cages and allowed at least 3 days of acclimatization before the start of the dosing. Each test group contained 3 rats. The POZ conjugates were dissolved 5% dextrose injection and the pH of the solution was adjusted to about 4.0 with 0.1 N hydrochloric acid. Each animal received a single subcutaneous (SC) injection of test article solution equivalent to a dose of 1.5-1.6 mg/kg (based in drug equivalents) and at a volume of 1 mL/kg, and into the left flank using a 23 G BD precision glide needle. […] All blood samples were collected in pre-labeled BD Microtainer tubes containing NaF/disodium EDTA, gently mixed and placed in an ice batch. Plasma was harvested by centrifugation at 3000 rpm for 15 minutes at 4° C. Plasma aliquots of 100 μL were collected in separate tubes containing 10 μL of a solution of 3N HCl acid, gently mixed and immediately frozen and stored at −70° C.
The plasma samples were processed by the ‘protein crash’ method using cold acetonitrile.

[3] = physchem

C=C(C)[C@@H]1CCC(C)=C[C@H]1c1c(O)cc(CCCCC)cc1O [Cannabidiol, cannabidiol]
Log Poct/wat ([1]; at 25° C., free drug): 6.1

CCCCCCC(C)(C)c1cc(O)c2c(c1)OC(C)(C)[C@H]1CC=C(CO)C[C@H]21 [Dexanabinol, dexanabinol]
logP [1]: 7.6

CCCN(CCc1cccs1)[C@H]1CCc2c(O)cccc2C1 [Rotigotine, rotigotine]
time to clear the body [2]: less than 24 hours
logP [3]: 4.9

CCCCCc1cc(O)c2c(c1)OC(C)(C)[C@@H]1CCC(C)=C[C@@H]21 [Δ^9-THC, d9-tetrahydrocannabinol]
Log P ([1]; free drug, listed as THC): 7.2 and 7.0
